In ChEMBL document CHEMBL1201862, “PubChem BioAssay data set” (2004):
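The compound was tested at five concentrations on cells cultured in 96-well plates, with a 48-hour exposure period. Here, GI50 denotes the concentration required for 50% inhibition of growth.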 The source made the active and inactive calls. Cut-off read from the data, not from the text of the source: active = GI50 up to about 1.1 µM and inactive = higher.

Tests used:
Assay in all cases: growth of human tumour cells (NCI), 48 h
BT-549 = system: BT-549
NCI-H522 = system: NCI-H522
SNB-19 = system: SNB-19
SN12C = system: SN12C
SK-MEL-28 = system: SK-MEL-28
UO-31 = system: UO-31
OVCAR-8 = system: OVCAR-8
A549 = system: A549
NCI/ADR-RES = system: NCI/ADR-RES
HCT-116 = system: HCT-116
HOP-62 = system: HOP-62
IGROV-1 = system: IGROV-1
LOX IMVI = system: LOX IMVI
NCI-H23 = system: NCI-H23
A498 = system: A498
SNB-75 = system: SNB-75
MDA-N = system: MDA-N
CCRF-CEM = system: CCRF-CEM
U-251 = system: U-251
TK-10 = system: TK-10

Row | Structure (SMILES) | GI50 (BT-549) | GI50 (NCI-H522) | GI50 (SNB-19) | GI50 (SN12C) | GI50 (SK-MEL-28) | GI50 (UO-31) | GI50 (OVCAR-8) | GI50 (A549) | GI50 (NCI/ADR-RES) | GI50 (HCT-116) | GI50 (HOP-62) | GI50 (IGROV-1) | GI50 (LOX IMVI) | GI50 (NCI-H23) | GI50 (A498) | GI50 (SNB-75) | GI50 (MDA-N) | GI50 (CCRF-CEM) | GI50 (U-251) | GI50 (TK-10)
1 | CCC(=O)Nc1ccc(NC(C#N)c2cccc(Oc3ccccc3)c2)cc1 (stereo unspecified) | 57.7 µM (inactive) | 48 µM (inactive) | > 100 µM (inactive) | 51.8 µM (inactive) | 53.3 µM (inactive) | 42.2 µM (inactive) | 26.2 µM (inactive) | 62.5 µM (inactive) | 28.2 µM (inactive) | 34.5 µM (inactive) | 49.7 µM (inactive) | 48.2 µM (inactive) | 21.4 µM (inactive) | 45.2 µM (inactive) | > 100 µM (inactive) | 42 µM (inactive) | 34.4 µM (inactive) | 32.1 µM (inactive) | – | –
2 | CCOC(=O)Nc1cc2c(c(N)n1)N=C(c1ccc(OC)cc1)CN2 | < 0.01 µM (active) | 0.00277 µM (active) | 0.000349 µM (active) | 0.00436 µM (active) | 0.0057 µM (active) | 0.206 µM (active) | 0.000895 µM (active) | 0.00258 µM (active) | 0.00126 µM (active) | 0.000251 µM (active) | 0.00015 µM (active) | – | 0.000315 µM (active) | 0.0692 µM (active) | 0.282 µM (active) | 0.000188 µM (active) | < 0.0001 µM (active) | 0.0016 µM (active) | < 0.0001 µM (active) | 0.361 µM (active)
3 | NS(=O)(=O)c1ccc(/N=N/c2nc3nc(O)nc(O)c3[nH]2)cc1 | > 100 µM (inactive) | > 100 µM (inactive) | > 100 µM (inactive) | > 100 µM (inactive) | > 100 µM (inactive) | > 100 µM (inactive) | > 100 µM (inactive) | > 100 µM (inactive) | > 100 µM (inactive) | > 100 µM (inactive) | > 100 µM (inactive) | > 100 µM (inactive) | > 100 µM (inactive) | > 100 µM (inactive) | > 100 µM (inactive) | > 100 µM (inactive) | > 100 µM (inactive) | – | > 100 µM (inactive) | > 100 µM (inactive)
